The results in this text go back to US8299034B2, “Nutritional compositions for promotion of bone growth and maintenance of bone health comprising extracts of for example rosemary or caraway” (Nestec S.A., priority 2008, dated 2012).

Structures are written as SMILES.

The subject of one assay is OPG/RANKL. The assay is described as follows: Osteoblast/osteoclast co-culture system, OPG/RANKL regulation. In kind it is cell-based. The procedure: (§1) The rosemary plant extracts and the pure compounds were tested in an osteoblast/osteoclast co-culture system.
The test system of the next assay is BMP-2. The assay is described as follows: BMP-2 high throughput gene reporter assay. In kind it is cell-based. An excerpt:
(§2) The following bioassays were used for bone formation analysis • BMP-2 gene reporter assay (high throughput screen) • Alkaline phosphatase in osteoblast cells • Calvaria organ culture in vitro, bone formation • Injection into calvaria in vivo, bone formation.
For example, extracts were screened for bone formation by a high throughput gene reporter assay for BMP-2 followed by an alkaline phosphatase assay and an organ culture model and finally by injection into mice calvaria in vivo. Subfractions of positive extracts and/or pure compounds were further tested for activity. Analysis of the chemical composition of one active extract was performed in order to determine the active compounds.
(§3) The screening for bone formation was carried out in several stages: • (i) BMP-2 high throughput gene reporter assay of non-hydrolyzed MeOH/H2O extracts (1a) and corresponding glycosidase hydrolyzed extract in ethyl acetate (1b). […] Extracts were assessed in a 4-day in vitro neonatal murine calvarial assay. Bones were incubated with the extracts for the entire 4 days. • (vi) Resorption activity monitored by measuring the amount of type I collagen released in the media as osteoclasts digest bone.

For assay [1], the system named is Osteopontin (OPN) mRNA in hPOBtert cells. Briefly: Osteopontin (OPN) mRNA induction by real-time PCR. In kind it is cell-based, human. As to conditions: 48 h, normalised to β-actin. Here is the method:
Cell culture—HPOBTert osteoblasts were seeded on collagen-coated plates and grown in MEM Eagle α Modification medium supplemented with 10% fetal bovine serum, 1% L-glutamine and penicillin/streptomycin, 1 mM β-glycerolphosphate and 50 μg/ml ascorbic acid in a humidified atmosphere of 5% CO2, and 95% air at 37° C. When carnosol and inhibitors were added, an equivalent amount of Me2SO was used as a vehicle control.
Analysis of mRNA levels by Real-Time PCR—Total cellular RNA was extracted using the NucleoSpin RNA II kit (Macherey-Nagel, Switzerland). Equal amounts (1 μg) of RNA from the different treatments were reverse-transcribed using the First Strand cDNA Synthesis kit for RT-PCR (Roche, Mannheim, Germany). For each sample, 2 μl 10× reaction buffer, 4 μl 25 mM MgCl2, 2 μl nucleotide mix, 2 μl random primers, 1 μl RNAse inhibitor and 0.4 μl AMV reverse transcriptase from the kit were added to the sample. The reverse transcriptase was performed at the following thermal cycling conditions (25° C. for 10 min, 42° C. for 60 min, and 75° C. for 5 min) using the PTC-100™ […]).
Real-time Quantitative PCR—Quantitative PCR was performed in 25 μl in triplicates. This consisted of 12.5 μl of Taqman 2× Universal PCR Master Mix, 1.25 μl Assay-on-Demand primers and probes (Applied Biosystems, USA) and 6.25 μl RNAse free water. […]
(Quantitative PCR measures a nucleic acid by following its amplification.)

The test system of assay [2] is neonatal murine calvarial bones. Briefly: Calvaria organ culture in vitro, bone formation. In kind it is cell-based. The conditions noted are these: phenolics tested at 1-10 μM. Here is the method: as §2, §3
Another assay relates to osteoblast cells. Briefly: Alkaline phosphatase assay in osteoblast cells. In kind it is cell-based. The procedure:
as §2, §3

In a further assay the test system is NQO1 in hPOBtert cells. Briefly: NQO1 induction, immunoblot. The class given is cell-based, human. The procedure:
Preparation of cytoplasmic extracts—hPOBtert cells were washed two times with cold phosphate-buffered saline and harvested with lysis buffer (1% Triton X-100, 20 mM Tris/HCL pH 8, 137 mM Nacl, 10% Glycerol, 2 mM EDTA pH 8, and freshly added proteinase inhibitors: 1 mM phenylmethylsulfonylfluoride, 0.15 U/ml Aprotinin, 10 μg/ml Leupeptide and 10 μg/ml Pepstatin). The samples were centrifuged at 13000 rpm, 4° C. for 5 min and the supernatant transferred to a fresh tube. The protein concentration was determined using the BioRad protein assay. Approximately 50 μg of each sample were mixed with a suitable volume of sample buffer, denatured for 5 min at 95° C. together with 5 μl protein standard, chilled on ice, and loaded on a 10% ready gel, and submitted to immunoblot analysis using anti-NQO1 antibodies.
Immunoblotting—50 μg of protein cell lysate were resolved by SDS-PAGE. After electrophoresis, proteins were transferred to a PVDF membrane (Invitrogen) according to the manufacturer's protocol. Membranes probed for OPN and NQO1 were blocked and probed in 5% milk in Tris-buffered saline/Tween (20 mM Tris base, pH 7.6, 137 mM, 0.1% Tween 20). The blots were visualised by chemiluminescence development, Western blotting detection system (Amersham Biosciences).
Antibodies—The NQO1 (sc-16464)-specific antibodies were purchased from Santa Cruz Biotechnologies Inc (Santa Cruz, Calif.). […]

The next assay relates to bone formation. Briefly: Bone formation bioassays, assay not specified (anabolic potential).
Text: as §2
For example, extracts were screened for bone formation by a high throughput gene reporter assay for BMP-2 followed by an alkaline phosphatase assay and an organ culture model and finally by injection into mice calvaria in vivo. Subfractions of positive extracts and/or pure compounds were further tested for activity.
as §1

For the compound `CC(C)c1cc2c(c(O)c1O)[C@@]13CCCC(C)(C)[C@@H]1C[C@@H]2OC3=O` [Carnosol], the “regulation of OPG/RANKL” value in the assay on OPG/RANKL is “activity for regulation of the key cytokines controlling bone remodeling”. For the same compound, in the assay with BMP-2 (2.5-10 μM), the BMP-2 induction is given as 4.5-7X. The “OPN mRNA levels” value in assay [1] is “induce OPN expression dose-dependently”. Also, the “Bone formation in organ culture” value in assay [2] is given as “Yes”. The ALP activity induction in the assay on osteoblast cells (2.5-10 μM) is on record as 2X. The NQO1 expression result in the assay on NQO1 in hPOBtert cells is listed as “induces the expression of the phase II enzyme NQO1”. Further, the anabolic potential result in the assay on bone formation is reported as “anabolic potential”.
In the case of `COc1cc(C=CC(=O)OCC2OC(Oc3cc4oc(-c5ccc(O)c(O)c5)cc(=O)c4c(O)c3OC)C(O)C(O)C2O)ccc1O` (stereo not shown) [6″-Feruloylnepitrin], in the assay with bone formation, the anabolic potential result is given as “anabolic potential”.
As for `O=c1cc(-c2ccc(O)cc2)oc2cc(O)c(O)c(O)c12` [Scutellarein], the BMP-2 induction in the assay on BMP-2 (5, 10 μM) is given as 3-4X. Besides, the ALP activity induction in the assay with osteoblast cells (10 μM) turned out to be 2X.
In the case of `COc1c(O)cc2oc(-c3ccc(O)c(O)c3)cc(=O)c2c1O` [Eupafolin], the “regulation of OPG/RANKL” value with OPG/RANKL is “activity for regulation of the key cytokines controlling bone remodeling”. In the assay on BMP-2 (2.5-10 μM), the BMP-2 induction was 3-8X. Also, in assay [2], the “Bone formation in organ culture” value was “Yes”. The ALP activity induction is recorded as 2 X in the assay on osteoblast cells (5 μM) and 4 X with osteoblast cells (10 μM). In addition, the anabolic potential result in the assay with bone formation was “anabolic potential”.
Compound `O=c1c(O)c(-c2ccc(O)cc2)oc2cc(O)cc(O)c12` [Kaempferol] returned a BMP-2 induction with BMP-2 (1-10 μM) of 2.5X. Also, in assay [2], the “Bone formation in organ culture” value is on record as “Yes”. For the same compound, the ALP activity induction in the assay on osteoblast cells (2.5-10 μM) is recorded as 2-4X. The anabolic potential result in the assay on bone formation is given as “anabolic potential”.
As for `COc1c(OC2OC(COC(=O)C=Cc3ccc(O)cc3)C(O)C(O)C2O)cc2oc(-c3ccc(O)c(O)c3)cc(=O)c2c1O` (stereo not shown) [6″-Coumaroylnepitrin], the anabolic potential entry in the assay on bone formation was “anabolic potential”.
`COc1cc(O)c2c(=O)cc(-c3ccc(O)cc3)oc2c1` [Genkwanin] returned a BMP-2 induction in the assay with BMP-2 (5 μM) of 4X. Further, the ALP activity induction with osteoblast cells (10 μM) is 1.5X.
Turning to `COc1ccc(-c2cc(=O)c3c(O)cc(O)cc3o2)cc1` [Acacetin], the BMP-2 induction with BMP-2 (5-10 μM) was 5.5X. The ALP activity induction in the assay with osteoblast cells (5-10 μM) amounted to 2X.
